Experimental data taken from article PMC11952234, “Functional profiling of synthetic camel milk-derived peptides with implication in glucose transport and diabetes” (PLOS One, 2025).
Values joined by “and” are separate entries in the source; they are usually repeats but may differ in a detail not shown here. Equal values may be shown once. Read-outs that look alike come from different tables or passages of the source. Marks after values point to notes of the source that are not given here. Residues, ends and D or L forms follow the SMILES beside them.

Assays:
[1] = molecular target: T1, insulin receptor (IR); interaction of IR-Rluc with IRS1-YFP in HEK293 cells (Homo sapiens, UniProt P06213); assay: BRET assay of IR activation (IR-Rluc/IRS1-YFP), single treatment, dose-response; type: cell-based; conditions: HEK293, 1 hour, 37°C, minimal data set for Figure 1, average
T1 construct: expressed in transfected cells; host or cells: HEK293 cells, transient co-transfection; plasmids provided by Dr. Tarik Issad (Cochin Institute, Paris)
T1 sequence (P06213 28-758 limits assumed): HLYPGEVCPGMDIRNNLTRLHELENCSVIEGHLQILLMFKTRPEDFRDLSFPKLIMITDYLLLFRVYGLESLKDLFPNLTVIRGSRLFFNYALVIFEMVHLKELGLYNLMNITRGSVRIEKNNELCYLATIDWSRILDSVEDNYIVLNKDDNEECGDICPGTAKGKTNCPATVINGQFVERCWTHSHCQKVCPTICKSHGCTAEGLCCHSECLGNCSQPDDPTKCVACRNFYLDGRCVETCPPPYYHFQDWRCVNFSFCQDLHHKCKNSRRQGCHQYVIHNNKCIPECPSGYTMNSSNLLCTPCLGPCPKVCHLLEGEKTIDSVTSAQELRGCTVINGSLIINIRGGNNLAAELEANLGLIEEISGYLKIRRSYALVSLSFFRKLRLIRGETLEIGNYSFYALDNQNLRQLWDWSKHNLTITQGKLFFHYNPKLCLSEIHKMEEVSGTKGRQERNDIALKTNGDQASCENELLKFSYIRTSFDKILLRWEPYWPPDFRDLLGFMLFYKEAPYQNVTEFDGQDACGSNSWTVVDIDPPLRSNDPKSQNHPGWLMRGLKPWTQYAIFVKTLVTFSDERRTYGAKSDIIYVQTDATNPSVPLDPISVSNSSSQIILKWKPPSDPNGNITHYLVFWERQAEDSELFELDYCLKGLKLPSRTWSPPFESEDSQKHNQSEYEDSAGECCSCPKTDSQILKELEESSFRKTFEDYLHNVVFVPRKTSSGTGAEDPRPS
T1 sequence (P06213 763-1382 limits assumed): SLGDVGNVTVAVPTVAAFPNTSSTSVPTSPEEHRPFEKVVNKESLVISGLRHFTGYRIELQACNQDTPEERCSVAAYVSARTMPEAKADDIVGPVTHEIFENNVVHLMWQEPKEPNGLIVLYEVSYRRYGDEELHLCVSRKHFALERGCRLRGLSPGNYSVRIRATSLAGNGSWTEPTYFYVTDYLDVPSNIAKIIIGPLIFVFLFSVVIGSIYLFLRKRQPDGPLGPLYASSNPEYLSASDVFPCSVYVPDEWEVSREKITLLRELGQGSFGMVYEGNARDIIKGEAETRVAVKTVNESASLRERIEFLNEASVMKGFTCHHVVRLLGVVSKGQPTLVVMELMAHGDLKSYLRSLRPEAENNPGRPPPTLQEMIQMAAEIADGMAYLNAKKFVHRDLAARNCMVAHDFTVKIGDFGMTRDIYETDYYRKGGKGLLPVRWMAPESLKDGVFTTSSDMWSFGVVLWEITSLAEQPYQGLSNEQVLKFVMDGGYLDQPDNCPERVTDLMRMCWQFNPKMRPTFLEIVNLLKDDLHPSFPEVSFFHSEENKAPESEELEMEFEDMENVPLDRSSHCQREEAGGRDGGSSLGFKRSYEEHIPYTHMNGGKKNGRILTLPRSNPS
Method: (§1) HepG2 and HEK293 cells were maintained at 37°C, 5% CO2 in complete RPMI and Dulbecco’s modified Eagle’s medium (DMEM), respectively, containing 0.3 mg/ml glutamine, 100 IU/ml penicillin, and 100 µg/ml streptomycin) supplemented with 10% fetal calf serum (Gibco, Carlsbad, CA, USA). The transient transfection in HEK293 cells was carried out in 75 cm flask containing 10^7 cells using Lipofectamine 2000 and 5 µg of IR-Rluc and 5 µg of IRS1-YFP (for BRET and phosphorylation experiments) as previously described. All assays were performed 48 hours post-transfection.
(§2) BRET technology was used for IR activation and its interaction with IRS1 as previously described. […] Following treatments, 10 μl of Coelenterazine h was added to a final concentration of 5 µ M and BRET measurements were carried out using the Tristar 2 multi-label plate reader (Berthold, Germany), allowing luminescence recording and signal integration at 480 nm and 540 nm.
(§3) Statistical analyses were performed statistical significance between the different treatments and conditions as indicated in the figures and tables and their captions. […] The significance is indicated in the figures by stars (****p-value < 0.0001, ***p-value < 0.001, ** p-value < 0.01, * p-value < 0.05), and the absence of stars means non-significant (p-value > 0.05). However, the two-way ANOVA was used for multiple comparisons to determine the statistical significance between the different peptides when compared to each other in the different assays as described in the tables.

[2] = tested on: insulin receptor (IR); insulin-induced IR-Rluc/IRS1-YFP BRET in HEK293 cells; assay: BRET assay of IR activation, peptides combined with insulin; type: cell-based, human; conditions: for insulin-induced BRET, % of insulin's response in the vehicle, Average: Average of Experiments 1-7; for insulin-induced BRET, % of insulin's response in the vehicle, Average / insulin-induced BRET, % of insulin's response in the vehicle / % of maximal BRET (insulin-induced): 1 μM insulin + 0.1 mg/ml peptide; for insulin-induced BRET, % of insulin's response in the vehicle, Average / insulin-induced BRET, % of insulin's response in the vehicle: HEK293, minimal data set for Figure 2; for % of maximal BRET (insulin-induced) / profile on insulin-dependent BRET response in combined treatment (in words): HEK293 cells; for % of maximal BRET (insulin-induced): 1 hour, 37°C, % of insulin's response in the vehicle taken as 100%, mean ± SD of five to seven independent experiments in triplicate; for profile on insulin-dependent BRET response in combined treatment (in words): 0.1 mg/ml peptide + 1 μM insulin, compared to insulin alone (Vehicle)
Method: as §1, §2
as §3, with “For BRET, the data were normalized by taking as 100% of the maximal insulin-induced BRET signal in the vehicle and analyzed using GraphPad Prism software (San Diego, CA, USA). Statistical” for “Statistical”, “tables. In this case, the different letters indicate statistically significant effects (p-value < 0.05), while the same letters indicate no significant difference between the different treatments compared to each other.” for “tables.”

HepG2 cells = assay: Glucose uptake assay (Glucose Uptake-Glo) in HepG2 cells; type: cell-based, human; conditions: 1 hour, 37°C; for glucose uptake, specific luminescence signal, Average: Average of Experiments 1-5, HepG2, 0.1 mg/ml peptide or 1 μM insulin, minimal data set for Figure 5; for % of glucose uptake: HepG2 cells, 0.1 mg/ml peptide or 1 μM insulin, % of insulin's response taken as 100%, mean ± SD of five independent experiments in triplicate
Method: Glucose uptake in HepG2 cells was carried out using Glucose Uptake-Glo Assay (Promega). For this, cells seeded in a 96-well white plate (50,000 cells/well) were first washed with PBS and starved in phenol red-, glucose-, and serum-free medium (Dulbecco’s modified Eagle’s medium containing 0.01 mM HEPES, 0.3 mg/ml glutamine, 100 IU/ml penicillin, and 100 µg/ml streptomycin). […] The treatment was removed, and the cells were washed once with PBS and then incubated with 50 μL/well of freshly prepared 2-deoxyglucose (500 μM) for 10 minutes at room temperature. The uptake process was stopped and neutralized, followed by the addition of 50 μl/well of 2-deoxyglucose-6-phosphate (2DG6P) detection reagent and incubation for 15-60 minutes at room temperature. The glucose-6-phosphate dehydrogenase (G6PDH) oxidizes 2DG6P to 6-phosphodeoxygluconate (6PDG) and reduces NADP + to NADPH. The reductase uses NADPH to convert the proluciferin to luciferin, which is then used by Ultra-Glo™ recombinant luciferase to produce luminescence. This luminescence, proportional to the amount of 2-deoxyglucose transported inside the cells upon treatment, was then measured using a 0.3–1 second integration on GloMax® Discover luminometer according to Glucose Uptake-Glo™ protocol.

[3] = tested on: AKT phosphorylation (pAKT-S473) in HepG2 cells; assay: AKT phosphorylation by western blot in HepG2 cells; type: cell-based, human; conditions: 1 μM insulin + 0.1 mg/ml peptide, 10 minutes, 37°C
Method: Following treatment, cells were then lysed with RIPA lysis buffer and thereafter centrifuged at 12000 × g for 30 minutes. Thereafter, the extracted cell lysate proteins were quantified using the bicinchoninic acid (BCA) protein assay. To examine the phosphorylation status of IR and AKT, 30-40 μg of proteins were loaded on 10% SDS-PAGE gel followed by western blot using the following antibodies: the mouse monoclonal anti-phospho-IR (pIR-Tyr1334)(1:1000 dilution) and the mouse monoclonal anti-phospho-AKT (pAKT-S473)(1:2000 dilution) as previously described. The corresponding total proteins loaded were also analyzed in parallel using the specific antibodies against the native forms of the different proteins. Densitometry analysis of the different western blots was performed using Image Studio Version 5.2 software from LICOR (Lincoln, Nebraska, USA).

[4] = HEK293, read-out: BRET, % of the maximal response of insulin, Average, peptide 0.001 mg/ml
[5] = HEK293, read-out: BRET, % of the maximal response of insulin, Average, peptide 0.005 mg/ml
[6] = HEK293, read-out: BRET, % of the maximal response of insulin, Average, peptide 0.01 mg/ml
[7] = HEK293, read-out: BRET, % of the maximal response of insulin, Average, peptide 0.05 mg/ml
[8] = HEK293, read-out: BRET, % of the maximal response of insulin, Average, peptide 0.1 mg/ml
[9] = HEK293, read-out: BRET, % of the maximal response of insulin, Average, peptide 0.5 mg/ml
[10] = HEK293, read-out: BRET, % of the maximal response of insulin, Average, peptide 1 mg/ml

Molecule	Emax [1, 4]	Emax [1, 5]	Emax [1, 6]	Emax [1, 7]	Emax [1, 8]	Emax [1, 9]	Emax [1, 10]	insulin-induced BRET, % of insulin's response in the vehicle, Average [2]	insulin-induced BRET, % of insulin's response in the vehicle ([2]; Experiment 1)	insulin-induced BRET, % of insulin's response in the vehicle ([2]; Experiment 2)	insulin-induced BRET, % of insulin's response in the vehicle ([2]; Experiment 3)	insulin-induced BRET, % of insulin's response in the vehicle ([2]; Experiment 4)	insulin-induced BRET, % of insulin's response in the vehicle ([2]; Experiment 5)	insulin-induced BRET, % of insulin's response in the vehicle ([2]; Experiment 6)	insulin-induced BRET, % of insulin's response in the vehicle ([2]; Experiment 7)	% of maximal BRET (insulin-induced) [2]	profile on insulin-dependent BRET response in combined treatment (in words) [2]	glucose uptake, specific luminescence signal, Average (HepG2 cells)	% of glucose uptake (HepG2 cells)	insulin-induced AKT phosphorylation, combined treatment (in words) [3]
CC(C)C[C@H](NC(=O)[C@H](Cc1ccccc1)NC(=O)[C@@H]1CCCN1C(=O)[C@H](CCCNC(=N)N)NC(=O)[C@@H](N)CC(C)C)C(=O)O [Peptide P1, LRPFL] (H-LRPFL-OH)	10.1%	16.5%	37.6%	43%	58.5%	56.7%	55.3%	103.6	73.6	47.0	66.9	125.9	98.2	190.8	122.6	104 ± 18^a %	non-efficient	1669300	66 ± 18^b %	–
CC(C)C[C@H](N)C(=O)N1CCC[C@H]1C(=O)N[C@H](C(=O)N1CCC[C@H]1C(=O)N[C@@H](CCC(N)=O)C(=O)O)C(C)C [Peptide P3, LPVPQ] (H-LPVPQ-OH; N-terminus and C-terminus assumed)	6%	11%	19.1%	48.8%	47.7%	46.3%	41.4%	110.8	81.5	130.9	81.8	135.0	93.0	152.3	100.8	111 ± 11^a %	non-efficient	1788200	71 ± 12^b %	–
CC(C)C[C@H](N)C(=O)N1CCC[C@H]1C(=O)N[C@H](C(=O)N1CCC[C@H]1C(=O)O)C(C)C [Peptide P6, LPVP] (H-LPVP-OH; N-terminus and C-terminus assumed)	18.3%	25.4%	35%	44.5%	45.6%	47.9%	40.4%	140.3	115.3	195.4	142.3	129.2	–	119.3	–	135 ± 13^d %	potentiating	3425500	135 – 150% and 136 ± 16^d %	slightly potentiated
CC[C@H](C)[C@H](NC(=O)[C@@H]1CCCN1C(=O)[C@@H](N)Cc1ccc(O)cc1)C(=O)O [Peptide P9, YPI] (H-Tyr-Pro-Ile-OH; N-terminus and C-terminus assumed)	3.3%	14.7%	24.7%	29.3%	40.2%	39.3%	31.7%	108.5	96.6	93.8	107.9	136.4	113.3	127.9	83.8	109 ± 7^a %	non-efficient	2361900	–	–
Human insulin [reference compound]	–	–	–	–	–	–	–	–	–	–	–	–	–	–	–	100^a %	–	2522500	100^a %	–
